Measured values: patent US20100062995A1, “Transition state structure of human 5'methylthioadenosine phosphorylase” (priority 2006, published 2010)
Values joined by “and” are separate entries in the source; they are usually repeats but may differ in a detail not shown here. Identical values can stand only once. Marks after values point to notes of the source that are not given here. Values belong to the compound of their own block, whether it stands above or below them.

Assays:
[1] = target: T1, human MTAP (Homo sapiens, UniProt Q13126); experiment: Measurement of kinetic isotope effects on arsenolysis of MTA; assay type: biochemical; conditions: pH 7.5, arsenolysis of MTA; for KIE (experimental): corrected to 0% substrate depletion; for Intrinsic KIEs: observed KIE corrected for forward commitment
T1 construct: His6 (N); made in house; host or cells: E. coli (pQE32 vector)
T1 sequence (Q13126 1-283): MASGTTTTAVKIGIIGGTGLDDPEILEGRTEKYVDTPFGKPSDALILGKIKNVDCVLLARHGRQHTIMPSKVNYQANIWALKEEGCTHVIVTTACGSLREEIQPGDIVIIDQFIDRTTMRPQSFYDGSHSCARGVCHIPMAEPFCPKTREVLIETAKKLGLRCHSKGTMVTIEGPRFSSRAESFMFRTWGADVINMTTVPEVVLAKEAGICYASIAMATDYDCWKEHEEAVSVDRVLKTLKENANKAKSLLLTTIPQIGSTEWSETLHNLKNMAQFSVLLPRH
Protocol: Measurement of kinetic isotope effects. The KIEs were measured by mixing ^3H and ^14C labeled substrates with ^3H:^14C in 4:1 ratio. […] After 20-30% completion of the reaction, 750 μL of the reaction was resolved on charcoal-Sepharose (acid-washed powdered charcoal and Sepharose in 1:4 ratio made into a slurry in 1 mM 5-methylthioribose (MTR) and settled in Pasteur pipettes). The remainder of the reaction mixture was allowed to react to completion and then applied to the column. Columns were washed with 2 volumes of 1 mM MTR and radioactive methylthioribose was eluted with 6 volumes of 15 mM MTR containing 50% ethanol. Each 1.0 mL of eluate was mixed with 9.0 mL scintillation fluid and counted for at least 3 cycles at 10 minutes per cycle. The ^3H to ^14C ratio was determined for partial and complete reactions and the KIEs were corrected to 0% hydrolysis by the equation: […]
where f is the fraction of reaction progress and Rf and Ro are ratios of heavy to light isotope at partial and total completion of reaction, respectively.
Experimental kinetic isotope effects (KIEs) and commitment factors. […] To avoid kinetic complexity associated with the transition state analyses for reversible reactions, the KIEs for the human MTAP were measured on the physiologically irreversible reaction of arsenolysis. The products of arsenolysis are adenine and 5-methylthioribose 1-arsenate. Methylthioribose 1-arsenate is unstable and rapidly decomposes to form methylthioribose and arsenate.
Where ^T(V/K) is an observed tritium isotope effect, Cf is the forward commitment to catalysis. The intrinsic KIEs were obtained by correcting the observed KIEs (column 3, Table 1) for the forward commitment.

[2] = target: S. pneumoniae MTAN (Streptococcus pneumoniae, UniProt Q8DQ16); conditions: S. pneumoniae MTAN (Singh et al., 2005a); cited from earlier work
[3] = target: E. coli MTAN (Escherichia coli, UniProt P0AF12); conditions: E. coli MTAN (Singh et al., 2005a); cited from earlier work
[4] = target: T1, human MTAP; conditions: cited from earlier work; for kcat: human MTAP (Kung et al., 2005); for fold increase in Km relative to MTA: human MTAP
[5] = target: T1, human MTAP; experiment: Kinetic analysis with substrate analogues (kcat, Km); assay type: biochemical
Description: Kinetic analysis with substrate analogues provide additional evidence concerning the importance of the 3′-hydroxyl in catalysis (Kung et al., 2005). […] The formation of an oxyanion from ionization of the 3′-hydroxyl further stabilizes the positive charge at the anomeric carbon.

S. pneumoniae MTAN, sequence (Q8DQ16 entry or part of it): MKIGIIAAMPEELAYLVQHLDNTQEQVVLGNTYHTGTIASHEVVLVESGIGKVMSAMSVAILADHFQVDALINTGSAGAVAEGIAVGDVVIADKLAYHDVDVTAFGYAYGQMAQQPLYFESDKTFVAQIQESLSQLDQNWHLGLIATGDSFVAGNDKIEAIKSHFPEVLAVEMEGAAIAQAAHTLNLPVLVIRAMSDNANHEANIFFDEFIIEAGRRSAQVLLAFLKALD

Structure (SMILES): [3H][C@]1(CSC)O[C@@H](n2cnc3c(N)ncnc32)[C@H](O)[C@@H]1O [[4′-^3H], [4′-^3H]MTA]
KIE (experimental) [1]: 1.037 ± 0.005 | Intrinsic KIEs [1]: 1.045 ± 0.005 | Intrinsic KIEs ([1]; listed as 4′-^3H): 1.045 | intrinsic 4′-^3H KIE [2]: 1.015 | intrinsic 4′-^3H KIE [3]: 1.010

Structure (SMILES): [3H]C([3H])(SC)[C@H]1O[C@@H](n2cnc3c(N)ncnc32)[C@H](O)[C@@H]1O [[5′-^3H], [5′-^3H]MTA]
KIE (experimental) [1]: 1.038 ± 0.001 | Intrinsic KIEs [1]: 1.046 ± 0.001 | Intrinsic KIEs ([1]; listed as [5′-^3H2] MTA): 1.046

Structure (SMILES): CSC[C@H]1O[C@@H](n2cnc3c(N)ncnc32)C[C@@H]1O [2′-deoxy MTA]
kcat [4]: 0.28 s⁻¹ | fold increase in Km relative to MTA [4]: ~2 fold

Structure (SMILES): CSC[C@H]1O[14C@@H](n2cnc3c(N)ncnc32)[C@H](O)[C@@H]1O [[1′-^14C], [1′-^14C]MTA]
KIE (experimental) [1]: 1.025 ± 0.005^b | Intrinsic KIEs [1]: 1.030 ± 0.005 | Intrinsic KIEs ([1]; listed as 1′-^14C): 1.029 | Intrinsic KIEs ([1]; listed as 1′-^14C MTA): 1.029

Further lines, with some results ahead:

KIE (experimental) [1]: 1.073 ± 0.002 | Intrinsic KIEs [1]: 1.086 ± 0.002 | Intrinsic KIEs ([1]; listed as [Me-^3H3] MTA): 1.086
Structure (SMILES): [3H]C([3H])([3H])SC[C@H]1O[C@@H](n2cnc3c(N)ncnc32)[C@H](O)[C@@H]1O [[Me-^3H], [methyl-^3H3]MTA]

KIE (experimental) [1]: 1.063 ± 0.003 | Intrinsic KIEs [1]: 1.076 ± 0.003 | Intrinsic KIEs ([1]; listed as 2′-^3H): 1.076
Structure (SMILES): [3H][C@@]1(O)[C@H](O)[C@@H](CSC)O[C@H]1n1cnc2c(N)ncnc21 [[2′-^3H], [2′-^3H]MTA]

fold decrease in kcat relative to MTA [5]: ~1000 fold
Structure (SMILES): CSC[C@@H]1C[C@@H](O)[C@H](n2cnc3c(N)ncnc32)O1 [3′-deoxy MTA]
kcat [4]: 0.004 s⁻¹ | fold increase in Km relative to MTA [4]: ~2 fold

KIE (experimental) [1]: 1.290 ± 0.003 | Intrinsic KIEs [1]: 1.350 ± 0.003 | Intrinsic KIEs ([1]; listed as 1′-^3H): 1.35
Structure (SMILES): [3H]C1(n2cnc3c(N)ncnc32)OC(CSC)C(O)C1O (stereo not shown) [[1′-^3H], [1′-^3H]MTA]

KIE (experimental) [1]: 1.031 ± 0.002^c | Intrinsic KIEs [1]: 1.037 ± 0.002 | Intrinsic KIEs ([1]; listed as 9-^15N): 1.037 and 1.036 | Intrinsic KIEs ([1]; listed as 9-^15N MTA): 1.037 | Intrinsic KIEs ([1]; listed as 15N9): 1.036
Structure (SMILES): CS[14CH2][C@H]1O[C@@H]([15n]2cnc3c(N)ncnc32)[C@H](O)[C@@H]1O [[9-^15N/5′-^14C]]
